In ChEMBL document CHEMBL1201862, “PubChem BioAssay data set” (2004):
The source made the active and inactive calls.

Legend:
[1] = molecular target: Glucose-6-phosphate 1-dehydrogenase (Homo sapiens, UniProt P11413); assay: inhibition of Homo sapiens G6PD, dose series – biochemical, fluorescence, selectivity assay for P. falciparum G6PD inhibitor project, dose response (AID 504792); assay type: functional
[2] = viability of HCT116 lacking mutant beta-catenin – cell-based, human colon tumor, dose response (AID 1045); assay type: functional;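 further: HCT116 colon tumor cells with beta catenin knocked out; cells exposed to compound for 60 hours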
[3] = NIH3T3 cell viability loss – ATP luminescence, mouse fibroblasts, counter-screen, dose response (AID 2010); assay type: functional, cell-based;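 further: cells exposed to compound for about 90 hours before reading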
Vero [4] = assay: cells; assay type: functional; conditions: Chlorocebus sabaeus
[5] = Trypanosoma cruzi growth suppression in host cells – NIH3T3 host cells, beta-gal luminescence, confirmation (AID 2044); assay type: functional, cell-based;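 further: intracellular parasites grown in NIH/3T3 mouse fibroblasts as host cells; luminescent beta-galactosidase reporter signal from transgenic T. cruzi replicating inside host cells; inhibitors lower the luminescence signal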
[6] = molecular target: FAD-linked sulfhydryl oxidase ALR (Homo sapiens, UniProt P55789); assay: ALR-catalysed DTT oxidation blockers – biochemical, H2O2 detection, luminescence, cherry-pick, dose response (AID 493248)
[7] = molecular target: T1, Mitochondrial peptide methionine sulfoxide reductase (Bos taurus, UniProt P54149); assay: Absorbance-based biochemical high throughput dose response assay for activators of Methionine sulfoxide reductase A (MsrA).; assay type: functional
T1 sequence (P54149 whole entry): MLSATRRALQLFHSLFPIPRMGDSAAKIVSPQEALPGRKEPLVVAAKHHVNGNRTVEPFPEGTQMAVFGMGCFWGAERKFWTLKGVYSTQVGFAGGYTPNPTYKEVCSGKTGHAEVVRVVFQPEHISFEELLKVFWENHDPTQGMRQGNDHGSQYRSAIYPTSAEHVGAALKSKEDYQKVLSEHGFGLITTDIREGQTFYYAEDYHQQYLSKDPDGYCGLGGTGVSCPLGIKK

[8] = viability of PTEN-deleted HCT116 cells – cell-based, HCT116 PTEN knockout, dose response (AID 1047); assay type: functional;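 further: HCT116 colon tumor cells with PTEN knocked out; cells exposed to compound for 60 hours before readout; potency for loss of cell viability measured by luminescence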
[9] = molecular target: Low molecular weight phosphotyrosine protein phosphatase (Homo sapiens, UniProt P24666); assay type: functional; conditions: read-out: IC50_Mean;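 further: Dose-response confirmation assay measuring inhibition of LMPTP enzyme activity by fluorescence intensity read-out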
Cytochrome P450 3A4 = Cytochrome P450 3A4 (Homo sapiens, UniProt P08684); conditions: Potency;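 further: confirmatory qHTS run detecting inhibitors and substrates of CYP3A4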
P388 = assay: cells; assay type: functional; conditions: Mus musculus
SN12K1 = assay: cells; assay type: functional; conditions: Homo sapiens
P388/ADR = assay: cells; assay type: functional; conditions: Mus musculus
[10] = molecular target: T2, High affinity choline transporter 1 (Homo sapiens, UniProt Q9GZV3); assay: human choline transporter blockers, potency – cell-based, 10-point CRC, membrane potential dye, dose response (AID 588401); assay type: functional;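 further: membrane potential dye fluorescence of choline-evoked depolarization via CHT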
T2 sequence (Q9GZV3 whole entry): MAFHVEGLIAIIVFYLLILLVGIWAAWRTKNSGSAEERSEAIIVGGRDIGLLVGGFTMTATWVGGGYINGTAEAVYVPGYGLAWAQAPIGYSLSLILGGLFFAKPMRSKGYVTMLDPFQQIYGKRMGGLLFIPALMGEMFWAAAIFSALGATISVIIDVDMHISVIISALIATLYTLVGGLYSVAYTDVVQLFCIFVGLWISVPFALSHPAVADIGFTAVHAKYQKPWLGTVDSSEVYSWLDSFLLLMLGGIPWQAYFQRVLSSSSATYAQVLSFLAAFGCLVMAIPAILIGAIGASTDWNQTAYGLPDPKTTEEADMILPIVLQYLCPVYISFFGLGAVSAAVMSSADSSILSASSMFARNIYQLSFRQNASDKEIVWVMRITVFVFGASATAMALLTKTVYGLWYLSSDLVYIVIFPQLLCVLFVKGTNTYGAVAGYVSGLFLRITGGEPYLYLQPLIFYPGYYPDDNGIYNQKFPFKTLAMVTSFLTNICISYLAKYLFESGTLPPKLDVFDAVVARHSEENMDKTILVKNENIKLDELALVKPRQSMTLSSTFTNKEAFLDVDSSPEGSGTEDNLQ

[11] = molecular target: T3, Apoptotic protease-activating factor 1 (Homo sapiens, UniProt O14727); assay type: functional;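 on EC50 Mean: caspase-3 cleavage of fluorogenic Rh110 DEVD substrate downstream of apoptosome activation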
T3 sequence (O14727 whole entry): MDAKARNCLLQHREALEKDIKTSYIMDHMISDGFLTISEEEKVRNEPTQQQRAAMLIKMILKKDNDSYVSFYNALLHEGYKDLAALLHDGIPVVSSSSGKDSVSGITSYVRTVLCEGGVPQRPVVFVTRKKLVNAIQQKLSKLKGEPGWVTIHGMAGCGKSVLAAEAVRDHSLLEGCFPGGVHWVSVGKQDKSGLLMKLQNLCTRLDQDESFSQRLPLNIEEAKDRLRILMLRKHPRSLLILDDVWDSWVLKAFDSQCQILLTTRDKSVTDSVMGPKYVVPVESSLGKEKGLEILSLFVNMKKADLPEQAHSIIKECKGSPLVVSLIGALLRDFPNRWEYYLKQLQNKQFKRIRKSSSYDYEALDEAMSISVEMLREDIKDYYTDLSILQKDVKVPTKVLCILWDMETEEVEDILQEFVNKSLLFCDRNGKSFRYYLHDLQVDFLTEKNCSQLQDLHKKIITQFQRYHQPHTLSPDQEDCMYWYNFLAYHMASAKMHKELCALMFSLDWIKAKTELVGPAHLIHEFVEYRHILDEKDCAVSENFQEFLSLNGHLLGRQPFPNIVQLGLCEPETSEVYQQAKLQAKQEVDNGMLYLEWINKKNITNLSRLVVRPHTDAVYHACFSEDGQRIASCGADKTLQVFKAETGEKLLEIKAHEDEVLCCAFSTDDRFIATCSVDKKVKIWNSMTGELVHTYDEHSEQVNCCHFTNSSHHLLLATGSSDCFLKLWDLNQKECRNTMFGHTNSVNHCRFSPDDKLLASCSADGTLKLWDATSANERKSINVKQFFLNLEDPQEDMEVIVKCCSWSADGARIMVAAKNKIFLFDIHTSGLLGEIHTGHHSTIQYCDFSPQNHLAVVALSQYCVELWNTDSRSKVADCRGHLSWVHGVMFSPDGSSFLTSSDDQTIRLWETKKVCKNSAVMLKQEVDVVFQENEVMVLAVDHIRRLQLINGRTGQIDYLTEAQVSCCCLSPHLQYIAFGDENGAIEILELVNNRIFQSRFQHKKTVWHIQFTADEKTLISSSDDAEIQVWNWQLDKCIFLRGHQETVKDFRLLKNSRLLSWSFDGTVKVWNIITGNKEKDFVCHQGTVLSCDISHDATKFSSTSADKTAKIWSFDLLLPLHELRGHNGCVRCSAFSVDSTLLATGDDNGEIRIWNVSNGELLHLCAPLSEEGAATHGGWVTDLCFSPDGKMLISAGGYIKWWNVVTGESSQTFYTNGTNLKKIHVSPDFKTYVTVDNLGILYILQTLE

[12] = molecular target: T2, High affinity choline transporter 1; assay: human choline transporter blockers, potency – cell-based, 5-point CRC, membrane potential dye, dose response (AID 504840); assay type: functional
H9c2 = assay: cells; assay type: functional, cell-based; conditions: Rattus norvegicus, H9c2, Myocardium;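 further: confirmatory concentration-response retest of ultra-high-throughput screening hits for modulation of myocardial damage; cell death induced by hydrogen peroxide oxidative stress; compound pretreatment for 60 min then peroxide exposure for 2 h; potency is for protecting the cells against peroxide damage rather than for killing them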
[13] = molecular target: T4, Heat shock factor protein 1 (Mus musculus, UniProt P38532); assay: enhancement of HSF1-driven luciferase signal – cell-based, NIH3T3, luminescence, dose retest, confirmation (AID 435004); assay type: functional;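 further: stress induced by proteasome inhibitor MG132 added 30 min after compound; luciferase reporter driven by HSF1 response element in NIH3T3 cells; actives raise luminescence as potentiators of the MG132 stress response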
T4 sequence (P38532 whole entry): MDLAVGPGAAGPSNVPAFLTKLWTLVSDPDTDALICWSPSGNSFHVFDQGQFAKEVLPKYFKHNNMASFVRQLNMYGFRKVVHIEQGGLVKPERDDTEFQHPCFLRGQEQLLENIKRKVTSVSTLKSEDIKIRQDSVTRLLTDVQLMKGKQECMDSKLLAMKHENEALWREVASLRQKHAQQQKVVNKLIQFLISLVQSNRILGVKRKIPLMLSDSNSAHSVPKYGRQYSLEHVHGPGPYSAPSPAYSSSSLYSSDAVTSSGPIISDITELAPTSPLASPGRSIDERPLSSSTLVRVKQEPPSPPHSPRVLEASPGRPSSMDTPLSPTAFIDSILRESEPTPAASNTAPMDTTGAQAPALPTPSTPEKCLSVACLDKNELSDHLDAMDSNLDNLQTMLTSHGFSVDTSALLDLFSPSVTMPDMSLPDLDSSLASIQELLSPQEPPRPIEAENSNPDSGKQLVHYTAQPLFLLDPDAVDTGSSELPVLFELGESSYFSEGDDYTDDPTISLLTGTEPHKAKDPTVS

[14] = restored growth of temperature-sensitive Burl-1 yeast – whole organism, S. cerevisiae, Burl-1 ts mutant, luminescence, counter-screen for SUMOylation pathway inhibitor project, dose response (AID 463199); assay type: functional
Melanocortin receptor 4 [15] = molecular target: T5, Melanocortin receptor 4 (Homo sapiens, UniProt P32245); assay: inhibitors of MC4R cAMP signaling – cell-based, TR-FRET, biased antagonists, dose response (AID 602298); assay type: functional;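 further: antagonist potency against agonist-stimulated cAMP production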
[16] = blockers of bursicon-stimulated LGR2 cAMP reporter – cell-based, HEK293, CRE-luciferase reporter, cherry pick, set 2, dose response (AID 743343); assay type: functional;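 further: transfected cells were stimulated with diluted bursicon conditioned medium after compound addition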
[17] = A549 cell cytotoxicity, dose response, cytotoxicity control, plate reader, cherry-pick, antagonist series (AID 743412); assay type: functional, cell-based
Melanocortin receptor 4 [18] = molecular target: T5, Melanocortin receptor 4; assay type: functional, cell-based
[19] = viability loss in HEK293 cells – cell-based, plate reader, cherry-picked samples, cytotoxicity control, dose response (AID 743446); assay type: functional
[20] = blockade of melanocortin 4 receptor signaling – cell-based, plate reader, cherry pick, counter-screen for LGR2 antagonist project, dose response (AID 743444); assay type: functional;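 further: transfected HEK 293 cells stimulated with alpha-MSH peptide; potency of inhibitors of the alpha-MSH evoked signal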
[21] = cAMP pathway inhibition in counterscreen cell line – TR-FRET cAMP detection, counter-screen for MC4R biased antagonist project, dose response (AID 602305); assay type: functional, cell-based;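 further: U2OS cells stimulated with forskolin near its EC80 as the cAMP inducer; potency is for inhibition of forskolin-stimulated cAMP signaling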
[22] = Luminescence Cell-Based Dose Retest to Confirm Inhibitors of Cancer Stem Cells. [Related pubchem assays (depositor defined):AID2717, AID2721]; assay type: functional; conditions: Homo sapiens
[23] = molecular target: T3, Apoptotic protease-activating factor 1; assay: SAR analysis of small molecule Activators of Apaf-1 in a Fluorescent assay.; assay type: functional; conditions: read-out: EC50_Mean
[24] = molecular target: Heat shock protein HSP 90-alpha (Homo sapiens, UniProt P07900); assay type: functional, organism-based
Vero [25] = assay: cells; assay type: functional, cell-based; conditions: Chlorocebus sabaeus

T5 sequence (P32245 whole entry): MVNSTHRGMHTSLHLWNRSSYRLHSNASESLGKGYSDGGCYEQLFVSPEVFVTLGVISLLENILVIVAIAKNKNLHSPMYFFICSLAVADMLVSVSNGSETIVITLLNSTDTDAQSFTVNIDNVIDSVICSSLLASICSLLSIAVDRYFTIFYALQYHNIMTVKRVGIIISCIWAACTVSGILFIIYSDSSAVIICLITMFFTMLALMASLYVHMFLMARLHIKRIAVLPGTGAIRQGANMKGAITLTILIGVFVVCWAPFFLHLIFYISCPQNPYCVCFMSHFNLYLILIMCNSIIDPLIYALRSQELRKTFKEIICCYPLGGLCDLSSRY
Glucose-6-phosphate 1-dehydrogenase, sequence (P11413 whole entry): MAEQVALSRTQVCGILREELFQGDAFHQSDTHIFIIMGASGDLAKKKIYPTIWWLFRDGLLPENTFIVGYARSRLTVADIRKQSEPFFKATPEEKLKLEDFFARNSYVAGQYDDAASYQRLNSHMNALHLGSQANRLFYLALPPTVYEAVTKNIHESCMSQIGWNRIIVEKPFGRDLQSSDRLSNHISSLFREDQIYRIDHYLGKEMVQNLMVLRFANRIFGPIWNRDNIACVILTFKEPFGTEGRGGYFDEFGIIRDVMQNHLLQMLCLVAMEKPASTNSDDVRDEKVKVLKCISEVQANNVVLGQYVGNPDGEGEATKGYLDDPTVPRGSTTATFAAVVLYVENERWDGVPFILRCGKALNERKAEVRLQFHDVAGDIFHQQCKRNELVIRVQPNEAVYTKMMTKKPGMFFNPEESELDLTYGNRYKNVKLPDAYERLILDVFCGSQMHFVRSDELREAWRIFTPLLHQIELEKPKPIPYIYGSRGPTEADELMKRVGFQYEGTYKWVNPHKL
Low molecular weight phosphotyrosine protein phosphatase, sequence (P24666 whole entry): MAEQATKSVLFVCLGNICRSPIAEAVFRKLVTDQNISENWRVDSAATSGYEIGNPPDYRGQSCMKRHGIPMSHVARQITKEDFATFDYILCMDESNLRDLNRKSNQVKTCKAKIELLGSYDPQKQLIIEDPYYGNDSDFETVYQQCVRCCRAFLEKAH
FAD-linked sulfhydryl oxidase ALR, sequence (P55789 whole entry): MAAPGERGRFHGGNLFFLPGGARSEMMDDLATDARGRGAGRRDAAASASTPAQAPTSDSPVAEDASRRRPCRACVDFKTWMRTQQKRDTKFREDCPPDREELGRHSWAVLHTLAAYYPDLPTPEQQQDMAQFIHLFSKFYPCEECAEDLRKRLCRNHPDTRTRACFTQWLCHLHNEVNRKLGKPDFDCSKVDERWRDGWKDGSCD
Cytochrome P450 3A4, sequence (P08684 whole entry): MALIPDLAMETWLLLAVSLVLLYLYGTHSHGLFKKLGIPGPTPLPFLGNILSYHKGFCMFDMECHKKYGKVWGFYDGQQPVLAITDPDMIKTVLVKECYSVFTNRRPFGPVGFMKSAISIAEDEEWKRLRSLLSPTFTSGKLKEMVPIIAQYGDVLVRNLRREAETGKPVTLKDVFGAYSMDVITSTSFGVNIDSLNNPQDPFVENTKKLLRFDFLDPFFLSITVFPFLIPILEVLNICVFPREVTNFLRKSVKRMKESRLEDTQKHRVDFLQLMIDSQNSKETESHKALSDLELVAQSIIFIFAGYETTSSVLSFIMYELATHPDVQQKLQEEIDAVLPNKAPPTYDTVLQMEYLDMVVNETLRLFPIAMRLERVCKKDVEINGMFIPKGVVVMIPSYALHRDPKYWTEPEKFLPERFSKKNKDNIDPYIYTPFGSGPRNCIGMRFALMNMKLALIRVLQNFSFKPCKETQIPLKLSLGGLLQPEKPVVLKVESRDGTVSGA

Structure (SMILES): O=c1ccsn1Cc1ccccc1
- IC50 [1]: 75.6 µM (inactive)
- EC50 [2]: 12.5 µM (active)
- EC50 [3]: 37.5 µM (active)
- CC50 (Vero [4]): > 25 µM (active)
- EC50 [5]: 1.1 µM (active)
- AC50 [6]: < 0.005 µM (active)
- EC50 [7]: > 104 µM (inactive)
- EC50 [8]: 13 µM (active)

Structure (SMILES): O=C(COC(=O)c1ccc(Br)o1)Nc1nc2c(F)c(F)c(F)cc2s1
- IC50 [9]: 12.7 µM (active)

Structure (SMILES): CC1OC(=O)C(C(C)C)NC(=O)C(C(C)C)OC(=O)C(C(C)C)NC(=O)C(C)OC(=O)C(C(C)C)NC(=O)C(C(C)C)OC(=O)C(C(C)C)NC(=O)C(C)OC(=O)C(C(C)C)NC(=O)C(C(C)C)OC(=O)C(C(C)C)NC1=O (stereo not given)
- AC50 (Cytochrome P450 3A4): 12.6 µM (inconclusive)
- GI50 (P388): 0.0025 µM (active)
- GI50 (SN12K1): 0.00281 µM (active)
- GI50 (P388/ADR): 0.00396 µM (active)

Structure (SMILES): Oc1c(Br)cc(Br)cc1/C=N/c1cccc2ncccc12
- IC50 [10]: 4.74 µM (active)
- IC50 [11]: 36 µM (active)
- IC50 [12]: 4.19 µM (active)
- IC50 (H9c2): 13.5 µM (active)
- EC50 [13]: > 260 µM (inactive)

Structure (SMILES): O=C(NCCN1CCOCC1)Nc1ccc(Cl)cc1Cl
- AC50 [14]: 68.1 µM (active)

Structure (SMILES): CCCCNc1c(-c2cccc(-c3cc(C(C)=O)cs3)c2)nc2ccc(C)cn12
- IC50 (Melanocortin receptor 4 [15]): > 64.6 µM (inactive)
- AC50 [16]: 11.4 µM (active)
- AC50 [17]: > 52 µM (inactive)
- EC50 (Melanocortin receptor 4 [18]): > 89.2 µM (inactive)
- AC50 [19]: > 52 µM (inactive)
- AC50 [20]: 14.5 µM (active)
- IC50 [21]: > 64.6 µM (inactive)
- AC50 [22]: 4.47 µM (active)

Structure (SMILES): CCCCn1c(N)c(N(CC(C)C)C(=O)CSCC(=O)Nc2cccc(C)c2)c(=O)[nH]c1=O
- AC50 [14]: 54.1 µM (active)

Structure (SMILES): COc1cc(NCC(C)C(=O)O)cc(OC)c1OC (stereo not given)
- EC50 [23]: > 100 µM (inactive)

Structure (SMILES): Cc1ccc(S(=O)(=O)N(C(=O)c2ccncc2)c2ccc(OC(=O)c3ccncc3)cc2)c(C)c1
- AC50 [24]: 1.72 µM (active)

Structure (SMILES): COc1cccc(-n2c(CN3CCN(C)CC3)nc3ccc([N+](=O)[O-])cc3c2=O)c1
- IC50 (Vero [25]): 14.7 µM (active)
- CC50 (Vero [4]): > 25 µM (active)

Structure (SMILES): O=C(O)CC1=C(Nc2ccccc2)C(=O)N(c2ccccc2)C1c1ccc(Cl)cc1 (stereo not given)
- IC50 [10]: 2.7 µM (active)
- IC50 [12]: 8.1 µM (active)
- EC50 [13]: > 260 µM (inactive)

Structure (SMILES): C=C1CC2CC[C@@]34C[C@@H]5O[C@@H]6C(O[C@H]7CC[C@H](CC(=O)OC8[C@@H](C)C9OC%10C[C@]%11(C[C@@H]%12O[C@@]%13(C[C@@H](C)[C@@H]%12O%11)C[C@H](C)[C@@H]%11OC%12CC(C(O)CO)OC%12C[C@@H]%11O%13)OC%10CC9O[C@H]8C[C@H]8O[C@@H](CC[C@@H]1O2)C[C@@H](C)C8=C)O[C@@H]7[C@@H]6O3)C5O4 (stereo not given in full)
- GI50 (P388): 0.000148 µM (active)
- GI50 (SN12K1): 0.000148 µM (active)
- GI50 (P388/ADR): 0.00416 µM (active)

Structure (SMILES): Cc1cccc(C)c1N1C(=O)CC2(CC(c3ccc(F)cc3)=NO2)C1=O (stereo not given)
- EC50 [23]: > 100 µM (inactive)

Structure (SMILES): CCOC(=O)c1cc(C(=O)NC(C)c2ccccc2)c(O)nc1C (stereo not given)
- IC50 [10]: 0.34 µM (active)
- IC50 [12]: 0.798 µM (active)

Structure (SMILES): CCc1nnc(NC(=O)CSc2nc3c(cc2C#N)CCCC3)s1
- AC50 [14]: 58.2 µM (active)

Structure (SMILES): O=NN(CCCl)C(=O)N[C@H]1CC[C@@H](CC(=O)O)CC1
- GI50 (P388): 12.9 µM (inactive)
- GI50 (SN12K1): > 100 µM (inactive)
- GI50 (P388/ADR): 19.9 µM (inactive)
